In US9957252B2, “Metalloenzyme inhibitor compounds as fungicides” (Dow AgroSciences LLC, priority 2014, dated 2018):
Where two headings read alike, the source gives them in different places.

Experiments:
[1] = system: standard laboratory SEPTTR isolate (SI SEPTTR); Mycosphaerella graminicola; Anamorph: Septoria tritici; experiment: Leaf blotch of wheat fungicidal activity, Type A assay (technical grade in acetone/water with Triton X-100, booth sprayer), standard laboratory isolate; assay type: in vivo, Mycosphaerella graminicola on wheat plants (variety Yuma); details: Zymoseptoria tritici, 24 h, 1 Day Protectant, wheat seedlings (Yuma), read-out: Disease control, SI SEPTTR Type A Assay (50 ppm) 1DP
Description: (§1) Evaluation of Fungicidal Activity: Leaf Blotch of Wheat (Mycosphaerella graminicola; Anamorph: Septoria tritici; Bayer code SEPTTR):
(§2) For Type A assays, technical grades of the experimental fungicides in Table 4 below were dissolved in acetone, and then mixed with nine volumes of water containing 110 ppm Triton X-100. The fungicide solutions were applied onto wheat seedlings using an automated booth sprayer. For Type B assays, emulsifiable concentrate (EC) formulations of technical grades of experimental fungicides in Table 4 below were prepared at 10% (w/v), and then mixed with 150 volumes of 0.1% Trycol 5941. The fungicide solutions were applied onto wheat seedlings using an automated track sprayer at 200 L/ha. All sprayed plants were allowed to air dry prior to further handling.
(§3) Wheat plants (variety Yuma) were grown from seed in a greenhouse in 50% mineral soil/50% soil-less Metro mix until the first leaf was fully emerged, with 7-10 seedlings per pot. Prior to or after application of experimental fungicides, plants were inoculated either with spores of a standard laboratory SEPTTR isolate (SI SEPTTR) or with spores from a SEPTTR field isolate collected from Wellsbourne, England in 2012 (FI SEPTTR). After inoculation, the plants were kept for 3 days at 20° C. in 100% relative humidity (one day in a dark dew chamber followed by two days in a lighted dew chamber). Plants were then transferred to a 20° C. greenhouse for disease development. When disease symptoms were fully expressed on untreated plants, infection levels on treated plants were assessed on a scale of 0 to 100 percent disease severity. Percent disease control was calculated using the ratio of disease severity on treated plants relative to untreated plants.

[2] = Leaf blotch of wheat fungicidal activity, Type B assay (10% EC formulation in 0.1% Trycol 5941, track sprayer 200 L/ha), field isolate; assay type: in vivo, Mycosphaerella graminicola on wheat plants (variety Yuma); details: Zymoseptoria tritici, 72 h, field isolate (Wellsbourne, England 2012), wheat seedlings (Yuma)
Description: as §1, §2, §3

[3] = 3 Day Curative, read-out: Disease control, FI SEPTTR Type B Assay (100 g/ha) 3DC
[4] = 3 Day Protectant, read-out: Disease control, FI SEPTTR Type B Assay (100 g/ha) 3DP

Compound	pest or weed control at 50 ppm [1]	pest or weed control at 100 g/ha [2, 3]	pest or weed control at 100 g/ha [2, 4]
CC(C)(C)C(O)(c1ccc(-c2ccccc2)cc1)c1cncnc1 (stereo not drawn) [Compound 5]	80 to 100%	–	–
CC(C)(C)C(O)(c1ccc(-c2ccc(C(F)(F)F)cc2)cc1)c1cncnc1 (stereo not drawn) [Compound 6]	80 to 100%	–	–
CC(C)(C)C(O)(c1ccc(-c2ccc(C(F)(F)F)nc2)cc1)c1cncnc1 (stereo not drawn) [Compound 7]	80 to 100%	–	–
CC(C)(C)C(O)(c1ccc(-c2ccccc2OC(F)(F)F)cc1)c1cncnc1 (stereo not drawn) [Compound 12]	60 to 79%	–	–
COc1ccc(-c2ccc(C(O)(c3cncnc3)C(C)(C)C)cc2)cc1 (stereo not drawn) [Compound 13]	80 to 100%	–	–
CC(C)(C)C(O)(c1cncnc1)c1ccc(-c2ccccc2)cc1Cl (stereo not drawn) [Compound 27]	80 to 100%	–	–
CC(C)(C)C(O)(c1cncnc1)c1ccc(-c2ccccc2)cc1F (stereo not drawn) [Compound 28]	80 to 100%	–	–
CC(C)(C)C(O)(c1ccc(-c2ccc(C(F)(F)F)cc2F)cc1)c1cncnc1 (stereo not drawn) [Compound 29]	80 to 100%	–	–
CC(C)(C)C(O)(c1cncnc1)c1ccc(-c2ccc(C(F)(F)F)cc2F)cc1F (stereo not drawn) [Compound 31]	80 to 100%	–	–
CC(C)(C)c1ccc(-c2ccc(C(O)(c3cncnc3)C(C)(C)C)cc2)cc1 (stereo not drawn) [Compound 33]	80 to 100%	–	–
CC(C)(C)C(O)(c1cccnc1)c1ccc(-c2ccc(OC(F)(F)F)cc2)cc1Cl (stereo not drawn) [Compound 64]	–	80 to 100%	80 to 100%
CC(C)(C)C(O)(c1cccnc1)c1ccc(-c2ccc(SC(F)(F)F)cc2)cc1Cl (stereo not drawn) [Compound 65]	–	80 to 100%	80 to 100%
CC(C)(C)C(O)(c1cccnc1)c1ccc(-c2ccc(OC(F)F)cc2)cc1Cl (stereo not drawn) [Compound 66]	–	< 40%	80 to 100%
CC(C)(C)C(O)(c1cccnc1)c1ccc(-c2ccc(OCC(F)(F)F)cc2)cc1Cl (stereo not drawn) [Compound 67]	–	80 to 100%	80 to 100%
CC(C)(C)C(O)(c1cccnc1)c1ccc(-c2ccc(C#N)cc2)cc1Cl (stereo not drawn) [Compound 68]	–	60 to 79%	80 to 100%
CC(C)(C)C(O)(c1cccnc1)c1ccc(-c2ccc(CC#N)cc2)cc1Cl (stereo not drawn) [Compound 69]	–	40 to 59%	80 to 100%
CC(C)(C)C(O)(c1cccnc1)c1ccc(-c2ccc(C3(C#N)CC3)cc2)cc1Cl (stereo not drawn) [Compound 70]	–	80 to 100%	80 to 100%
CC(C)(C#N)c1ccc(-c2ccc(C(O)(c3cccnc3)C(C)(C)C)c(Cl)c2)cc1 (stereo not drawn) [Compound 71]	–	80 to 100%	80 to 100%
CC(C)(C)c1ccc(-c2ccc(C(O)(c3cccnc3)C(C)(C)C)c(Cl)c2)cc1 (stereo not drawn) [Compound 72]	–	60 to 79%	80 to 100%
Cc1cc(OC(F)(F)F)ccc1-c1ccc(C(O)(c2cccnc2)C(C)(C)C)c(Cl)c1 (stereo not drawn) [Compound 73]	–	40 to 59%	80 to 100%
Cc1cc(OC(F)(F)F)ccc1-c1ccc(C(O)(c2cncnc2)C(C)(C)C)c(F)c1 (stereo not drawn) [Compound 74]	–	80 to 100%	80 to 100%
CC(C)(C)C(O)(c1cncnc1)c1ccc(-c2ccc(C3(C#N)CC3)cc2)cc1F (stereo not drawn) [Compound 75]	–	80 to 100%	80 to 100%
CC(C)(C)C(O)(c1cncnc1)c1ccc(-c2ccc(OCC(F)(F)F)nc2)cc1F (stereo not drawn) [Compound 76]	–	80 to 100%	60 to 79%
CC(C)(C#N)c1ccc(-c2ccc(C(O)(c3cncnc3)C(C)(C)C)c(F)c2)cc1 (stereo not drawn) [Compound 77]	–	80 to 100%	80 to 100%
CC(C)(C)C(O)(c1cncnc1)c1ccc(-c2ccc(OC(F)(F)F)cc2F)cc1F (stereo not drawn) [Compound 78]	–	80 to 100%	80 to 100%

Compound	pest or weed control at 50 ppm [1]	pest or weed control at 100 g/ha [2, 3]	pest or weed control at 100 g/ha [2, 4]
COC(c1cncnc1)(c1ccc(-c2ccc(OC(F)(F)F)cc2)cc1F)C(C)(C)C (stereo not drawn) [Compound 79, 5-(1-(3-fluoro-4′-(trifluoromethoxy)-[1,1′-biphenyl]-4-yl)-1-methoxy-2,2-dimethylpropyl)pyrimidine]	–	80 to 100%	80 to 100%
COC(c1cncnc1)(c1ccc(-c2ccc(OC(F)(F)F)cc2C)cc1F)C(C)(C)C (stereo not drawn) [Compound 80]	–	80 to 100%	80 to 100%
COC(c1cncnc1)(c1ccc(-c2ccc(OC(F)(F)F)cc2F)cc1F)C(C)(C)C (stereo not drawn) [Compound 81]	–	80 to 100%	80 to 100%
COC(c1cncnc1)(c1ccc(-c2ccc(OCC(F)(F)F)nc2)cc1F)C(C)(C)C (stereo not drawn) [Compound 82]	–	80 to 100%	80 to 100%
COC(c1cncnc1)(c1ccc(-c2ccc(OCC(F)(F)F)cc2)cc1F)C(C)(C)C (stereo not drawn) [Compound 83]	–	80 to 100%	80 to 100%
COC(c1cncnc1)(c1ccc(-c2ccc(C3(C#N)CC3)cc2)cc1F)C(C)(C)C (stereo not drawn) [Compound 84]	–	80 to 100%	80 to 100%
COC(c1cncnc1)(c1ccc(-c2ccc(C(C)(C)C#N)cc2)cc1F)C(C)(C)C (stereo not drawn) [Compound 85]	–	80 to 100%	80 to 100%
CC(C)(C#N)c1ccc(-c2ccc(C(O)(c3cncnc3)C(C)(C)C)c(Cl)c2)cc1 (stereo not drawn) [Compound 86]	–	60 to 79%	80 to 100%
COc1ncncc1C(O)(c1ccc(-c2ccc(OCC(F)(F)F)nc2)cc1F)C(C)(C)C (stereo not drawn) [Compound 87]	–	80 to 100%	80 to 100%
COc1ncncc1C(O)(c1ccc(-c2ccc(OC(F)(F)F)cc2C)cc1F)C(C)(C)C (stereo not drawn) [Compound 88]	–	80 to 100%	80 to 100%
CC(C)(C)C(O)(c1cncnc1)c1ccc(-c2ccc(C3(C#N)CC3)cc2)cc1Cl (stereo not drawn) [Compound 89]	–	60 to 79%	80 to 100%
Cc1cc(-c2ccc(C(C)(C)C#N)cc2F)ccc1C(O)(c1cncnc1)C(C)(C)C (stereo not drawn) [Compound 91]	–	80 to 100%	80 to 100%
COc1ncncc1C(O)(c1ccc(-c2ccc(C(C)(C)C#N)cc2)cc1F)C(C)(C)C (stereo not drawn) [Compound 92]	–	80 to 100%	80 to 100%
Cc1cc(-c2ccc(OC(F)(F)F)cn2)ccc1C(O)(c1cncnc1)C(C)(C)C (stereo not drawn) [Compound 94, 2,2-dimethyl-1-(2-methyl-4-(5-(trifluoromethoxy)pyridin-2-yl)phenyl)-1-(pyrimidin-5-yl)propan-1-ol]	–	80 to 100%	80 to 100%
CC(C)(C#N)c1ccc(-c2ccc(C(O)(c3cncnc3)C(C)(C)C)c(Cl)c2)c(F)c1 (stereo not drawn) [Compound 95]	–	80 to 100%	80 to 100%
COc1ncncc1C(O)(c1ccc(-c2ccc(OC(F)(F)F)cc2)cc1F)C(C)(C)C (stereo not drawn) [Compound 96]	–	80 to 100%	80 to 100%
CC(C)(C)C(O)(c1cncnc1)c1ccc(-c2ccc(C3(C#N)CC3)cc2F)cc1F (stereo not drawn) [Compound 97]	–	80 to 100%	80 to 100%
Cc1cc(OC(F)(F)F)ccc1-c1ccc(C(O)(c2cncnc2)C(C)(C)C)c(Cl)c1 (stereo not drawn) [Compound 99]	–	80 to 100%	80 to 100%
COc1ncncc1C(O)(c1ccc(-c2ccc(C3(C#N)CC3)cc2)cc1F)C(C)(C)C (stereo not drawn) [Compound 100]	–	80 to 100%	80 to 100%
CC(C)(C#N)c1ccc(-c2ccc(C(O)(c3cncnc3)C(C)(C)C)c(F)c2)c(F)c1 (stereo not drawn) [Compound 101]	–	80 to 100%	80 to 100%
CC(C)(C)C(O)(c1cncnc1)c1ccc(-c2ccc(OC(F)(F)F)cn2)cc1F (stereo not drawn) [Compound 102]	–	80 to 100%	80 to 100%
Cc1cc(-c2ccc(C3(C#N)CC3)cc2F)ccc1C(O)(c1cncnc1)C(C)(C)C (stereo not drawn) [Compound 103]	–	80 to 100%	80 to 100%
CC(C)(C)C(O)(c1cncnc1)c1ccc(-c2ccc(OC(F)(F)F)cc2F)cc1Cl (stereo not drawn) [Compound 104]	–	80 to 100%	80 to 100%
Cc1cc(C(C)(C)C#N)ccc1-c1ccc(C(O)(c2cncnc2)C(C)(C)C)c(F)c1 (stereo not drawn) [Compound 105]	–	80 to 100%	80 to 100%
CC(C)(C)C(O)(c1cncnc1)c1ccc(-c2ccc(C3(C#N)CC3)cc2F)cc1Cl (stereo not drawn) [Compound 106]	–	60 to 79%	80 to 100%
